{"source": "patent US20250331521A1", "about": "“NITROGEN-CONTAINING HETEROCYCLIC COMPOUND HAVING AN OXIME GROUP, AGRICULTURAL OR HORTICULTURAL HERBICIDE COMPRISING THE COMPOUND, AND METHOD FOR USING THE COMPOUND OR THE HERBICIDE” (NIHON NOHYAKU CO., LTD., priority 2022, published 2025)"}
{"tested_on": "Barnyard grass (Echinochloa crus-galli)", "assay": "Test Example 1: post-emergence herbicidal effect against paddy weeds", "format": "in vivo", "details": "144 h, active ingredient concentration 10 ppm, drop treatment in hydroponic medium, 30° C., full light, six days after treatment, compared to non-treatment group, read-out: herbicidal effect against barnyard grass (score, degree of growth inhibition)", "experimental": "Test Example 1: Test for Post-Emergence Herbicidal Effect Against Paddy Weeds Barnyard grass (Echinochloa crus-galli) was seeded and grown in test tubes containing hydroponic medium in an artificial climate chamber or a phytotron. Agrochemical formulations containing the compounds of the present invention as active ingredients prepared according to Formulation Example 1 were separately diluted with water so that the concentration of the active ingredient would be a predetermined concentration and used for drop treatment of the barnyard grass. The barnyard grass was grown in the artificial climate chamber at 30° C. under full light conditions. Six days after agrochemical treatment, the herbicidal effect was evaluated as compared to the non-treatment group according to the following criteria. Criteria for Herbicidal Effect (Degree of Growth Inhibition) and Phytotoxicity • Score 4 90% to 100% herbicidal effect • Score 3 70% to 89% herbicidal effect • Score 2 40% to 69% herbicidal effect • Score 1 1% to 39% herbicidal effect • Score 0 0% herbicidal effect", "units": {"inhibition at 10 ppm": "%"}}
{"smiles": "CCO/N=C(\\N)c1ccc(S(=O)(=O)NC)c(-c2nc(-c3ccccc3)nn2C)n1", "note": "[Compound No. 1-4, (Z)-N′-ethoxy-6-(1-methyl-3-phenyl-1H-1,2,4-triazol-5-yl)-5-(N-methylsulfamoyl)picolinimidamide]", "inhibition at 10 ppm": "70 to 89"}
{"smiles": "CCO/N=C(\\N)c1ccc(S(=O)(=O)NC)c(-c2nc(-c3ccccc3)cn2C)n1", "note": "[Compound No. 2-33, (Z)-N′-ethoxy-6-(1-methyl-4-phenyl-1H-imidazol-2-yl)-5-(N-methylsulfamoyl)picolinimidamide]", "inhibition at 10 ppm": "70 to 89"}
{"smiles": "CCO/N=C(\\N)c1ccc(S(=O)(=O)NC)c(-n2nc(-c3ccccc3)nc2C)n1", "note": "[Compound No. 3-3, (Z)-N′-ethoxy-6-(5-methyl-3-phenyl-1H-1,2,4-triazol-1-yl)-5-(N-methylsulfamoyl)picolinimidamide]", "inhibition at 10 ppm": "70 to 89"}
{"smiles": "CCO/N=C(\\N)c1ccc(S(=O)(=O)NC)c(-n2nc(-c3ccccc3)cc2C)n1", "note": "[Compound No. 4-6, (Z)-N′-ethoxy-6-(5-methyl-3-phenyl-1H-pyrazol-1-yl)-5-(N-methylsulfamoyl)picolinimidamide]", "inhibition at 10 ppm": "70 to 89"}
{"smiles": "CCO/N=C(\\N)c1ccc(C(=O)OCC)c(-c2nn(-c3ccccc3)c(=O)n2C)n1", "note": "[Compound No. 5-3, (Z)-ethyl 6-(N′-ethoxycarbamimidoyl)-2-(4-methyl-5-oxo-1-phenyl-4,5-dihydro-1H-1,2,4-triazol-3-yl)nicotinate]", "inhibition at 10 ppm": "70 to 89"}
{"smiles": "CCO/N=C(\\C)c1ccc(S(C)(=O)=O)c(-n2c(C)nn(-c3ccccc3)c2=O)n1", "note": "[Compound No. 6-1, (E)-4-(6-(1-(ethoxyimino)ethyl)-3-(methylsulfonyl)pyridin-2-yl)-3-methyl-1-phenyl-1H-1,2,4-triazol-5(4H)-one]", "inhibition at 10 ppm": "70 to 89"}
{"smiles": "CCO/N=C(\\N)c1ccc(C(=O)OCC)c(-c2nc(-c3ccccc3)sc2C)n1", "note": "[Compound No. 7-1, (Z)-ethyl 6-(N′-ethoxycarbamimidoyl)-2-(5-methyl-2-phenylthiazol-4-yl)nicotinate]", "inhibition at 10 ppm": "70 to 89"}
{"smiles": "CCO/N=C(\\N)c1ccc(S(=O)(=O)NC)c(-c2csc(-c3ccccc3)n2)n1", "note": "[Compound No. 7-18, (Z)-N′-ethoxy-5-(N-methylsulfamoyl)-6-(2-phenylthiazol-4-yl)picolinimidamide]", "inhibition at 10 ppm": "70 to 89"}
{"smiles": "CCO/N=C(\\N)c1ccc(S(=O)(=O)NC)c(-c2nc(-c3ccccc3)cs2)n1", "note": "[Compound No. 8-2, (Z)-N′-ethoxy-5-(N-methylsulfamoyl)-6-(4-phenylthiazol-2-yl)picolinimidamide]", "inhibition at 10 ppm": "70 to 89"}
{"smiles": "CCO/N=C(\\N)c1ccc(S(C)(=O)=O)c(-c2nc(-c3ccccc3)cs2)n1", "note": "[Compound No. 8-17, (Z)-N′-ethoxy-5-(methylsulfonyl)-6-(4-phenylthiazol-2-yl)picolinimidamide]", "inhibition at 10 ppm": "70 to 89"}
{"smiles": "CCO/N=C(\\N)c1ccc(S(=O)(=O)NC)c(-c2nn(-c3ccccc3)cc2C)n1", "note": "[Compound No. 10-2, (Z)-N′-ethoxy-6-(4-methyl-1-phenyl-1H-pyrazol-3-yl)-5-(N-methylsulfamoyl)picolinimidamide]", "inhibition at 10 ppm": "70 to 89"}
{"smiles": "CCO/N=C(\\N)c1ccc(S(C)(=O)=O)c(-c2nn(-c3ccccc3)cc2C)n1", "note": "[Compound No. 10-16, (Z)-N′-ethoxy-6-(4-methyl-1-phenyl-1H-pyrazol-3-yl)-5-(methylsulfonyl)picolinimidamide]", "inhibition at 10 ppm": "70 to 89"}
{"smiles": "CCO/N=C(\\N)c1ccc(S(C)(=O)=O)c(-c2nn(-c3ccccc3[N+](=O)[O-])nc2C)n1", "note": "[Compound No. 11-95, (Z)-N′-ethoxy-6-(5-methyl-2-(2-nitrophenyl)-2H-1,2,3-triazol-4-yl)-5-(methylsulfonyl)picolinimidamide]", "inhibition at 10 ppm": "70 to 89"}
{"smiles": "CCO/N=C(\\N)c1ccc(S(=O)(=O)NC)c(-c2nc(-c3ccccc3Cl)nn2C)c1", "note": "[Compound No. 17-2, (Z)-3-(3-(2-chlorophenyl)-1-methyl-1H-1,2,4-triazol-5-yl)-N′-ethoxy-4-(N-methylsulfamoyl)benzimidamide]", "inhibition at 10 ppm": "70 to 89"}
{"smiles": "CCO/N=C(\\N)c1ccc(S(=O)(=O)NC)c(-n2nc(C)c(-c3ccccc3)n2)n1", "note": "[Compound No. 20-17, (Z)-N′-ethoxy-6-(4-methyl-5-phenyl-2H-1,2,3-triazol-2-yl)-5-(N-methylsulfamoyl)picolinimidamide]", "inhibition at 10 ppm": "70 to 89"}
